Results on 2 molecules are retold here after patent US20250034118A1, “ANTIMALARIAL HEXAHYDROPYRIMIDINE DERIVATIVES” (UCB BIOPHARMA SRL, priority 2021, published 2025).

Where a name gives a salt, the structure may show the parent alone. Read-outs that look alike come from different tables or passages of the source.

The subject of the assay is Plasmodium falciparum 3D7 strain. Briefly: P. falciparum 3D7 asexual blood stage assay (SYBR green readout). It is filed as cell-based. The text has this:
The compounds of the present invention are potent inhibitors of the growth and propagation of the Plasmodium falciparum parasite in human blood.
The assay used to measure the effect of test compounds on a bloodstream stage of Plasmodium falciparum 3D7 strain employs SYBR green as the readout. This is a dye that binds to double stranded deoxyribonucleic acid (DNA) with a resulting increase in fluorescence, allowing detection of P. falciparum DNA in infected erythrocytes, and thereby providing a measure of parasite growth and propagation.
Erythrocytes (A+ blood) were prepared for both parasite culture and assay by washing 4 times with incomplete media (15.9 g RPMI 1640 (25 mM HEPES, L-glutamine), 1 g NaHCO3, 2 g glucose, 400 μL gentacin (500 mg/mL), 2 mL hypoxanthine solution (13.6 g/L in 0.1M NaOH pH 7.3) in 1 litre of media). The cells were centrifuged at 1800 g for 5 minutes, before decanting the supernatant and re-suspending in fresh incomplete media. On the final wash, the cells were re-suspended in complete media (incomplete media with 5 g/L AlbumaxII), and centrifuged at 1800 g for 3 minutes. This cell sediment was treated as 100% haematocrit.
P. falciparum 3D7 was cultured in erythrocytes at 5% haematocrit in complete media at 37° C. (1% O2, 3% CO2, balance N2). […]
On day 5, fluorescent signal was measured using a BioTek plate reader (excitation 485 nm, emission 528 nm). […]

On to `C[C@@H]1C[C@H](N2C(=N)N[C@](C)(c3cccc(NC(=O)c4cncn4CC(F)(F)F)c3Cl)CC2=O)CCC1(F)F` [Example 1, N-(2-Chloro-3-{(4S)-1-[(1R,3R)-4,4-difluoro-3-methylcyclohexyl]-2-imino-4-methyl-6-oxohexahydropyrimidin-4-yl}phenyl)-3-(2,2,2-trifluoroethyl)imidazole-4-carboxamide], for which, where the note is “Erythrocyte, P. falciparum 3D7 in erythrocytes, 5% haematocrit, 0.5% parasitaemia, 72 h incubation, SYBR green fluorescence, read-out: IC50”, the IC50 (in general, the concentration at which inhibition is half-maximal) was 5 nM.

Where the note is “3D7, Erythrocyte, 72 h”, `CO[C@H]1C[C@@H](N2C(=N)N[C@](C)(c3cccc(NC(=O)c4cncn4CC(F)(F)F)c3Cl)CC2=O)CCC1(F)F` (relative stereo) [Example 2, N-(2-Chloro-3-{(4S)-1-[(1S*, 3S*)-4,4-difluoro-3-methoxycyclohexyl]-2-imino-4-methyl-6-oxohexahydropyrimidin-4-yl}phenyl)-3-(2,2,2-trifluoroethyl)imidazole-4-carboxamide hydrochloride] displayed an IC50 of 4.2 nM.
